≈ marks a conversion by molar mass, not a printed value.
How the values were obtained:
[1] = test system: C. neoformans ATCC 208821; assay: Antifungal MIC, C. neoformans (CO-ADD); type: cell-based; details: Cryptococcus neoformans, ATCC208821, mean (n = 2)
Method: (§1) The susceptibility of bacterial strains S. aureus (ATCC 25923), E. coli (ATCC 25922) and P. aeruginosa (ATCC 27853) to antibiotics and compounds was determined using protocols reported previously. Additional antimicrobial evaluation against MRSA (ATCC 43300), Klebsiella pneumoniae (ATCC 700603), Acinetobacter baumannii (ATCC 19606), Candida albicans (ATCC 90028) and Cryptococcus neoformans (ATCC 208821) was undertaken at the Community for Open Antimicrobial Drug Discovery at The University of Queensland (Australia) according to their standard protocols reported previously.

[2] = test system: C. albicans ATCC 90028; assay: Antifungal MIC, C. albicans (CO-ADD); type: cell-based; details: Candida albicans, ATCC90028, mean (n = 2)
Method: as §1

[3] = test system: P. aeruginosa ATCC 27853; assay: Antimicrobial MIC, P. aeruginosa; type: cell-based; details: Pseudomonas aeruginosa, ATCC27853, mean (n = 3)
Method: as §1

[4] = test system: S. aureus ATCC 25923; assay: Antimicrobial MIC, S. aureus; type: cell-based; details: Staphylococcus aureus, ATCC25923, mean (n = 3)
Method: as §1

[5] = test system: E. coli ATCC 25922; assay: Erythromycin enhancement against E. coli; type: cell-based, Escherichia coli; details: erythromycin fixed at 10.9 µM (8 µg/mL)
Method: (§2) Antibiotic enhancer concentrations were determined using previously reported protocols.

[6] = test system: P. aeruginosa ATCC 27853; assay: Doxycycline enhancement against P. aeruginosa; type: cell-based, Pseudomonas aeruginosa; details: doxycycline fixed at 4.5 µM
Method: as §2
We then evaluated the set of analogues for the ability to enhance the antibiotic activity of doxycycline against P. aeruginosa ATCC 27853 and of erythromycin against E. coli ATCC 25922 (Table 2). In the case of doxycycline, a fixed concentration of the antibiotic of 4.5 μM, which is twenty-fold lower than the intrinsic MIC 90 μM against this organism, was used. Each of the test compounds was then evaluated at a range of concentrations varying from 3.125 to 50–100 μM, with the upper concentration dependent upon the compounds intrinsic MIC towards P. aeruginosa (Table 1). […] While the observation of cytotoxicity/hemolytic properties of 16a–c, 14f and 13f reduces our interest in these analogues, analogues 13b and 13d were identified as non-toxic and strong enhancers of the action of doxycycline towards P. aeruginosa.

[7] = test system: E. coli ATCC 25922; assay: Antimicrobial MIC, E. coli; type: cell-based, Escherichia coli; details: mean (n = 3)
Method: as §1

[8] = test system: MRSA ATCC 43300; assay: Antimicrobial MIC, MRSA (CO-ADD); type: cell-based, methicillin-resistant S. aureus; details: Staphylococcus aureus; MRSA ATCC 43300; mean (n = 2); read-out: MIC MRSA
Method: as §1

[9] = test system: human red blood cells; assay: Hemolytic assay; type: cell-based; details: mean (n = 2)
Method: Hemolysis assays were conducted using the protocols previously reported.

[10] = Cytotoxicity assay; type: cell-based, human; details: human, HEK293 human embryonic kidney cells, mean (n = 2), read-out: Cytotoxicity (IC50), concentration of compound at 50% cytotoxicity
Method: Cytotoxicity assays were conducted using the protocols previously reported.

[11] = Escherichia coli, ATCC25922, E. coli ATCC 25922

## O=C(C=Cc1ccccc1)NCCCNCCCCNCCCNC(=O)C=Cc1ccccc1.O=C(O)C(F)(F)F.O=C(O)C(F)(F)F [Compound 13a, N^1,N^4-Bis(3-cinnamamidopropyl)butane-1,4-diaminium 2,2,2-trifluoroacetate]
[1]
  MIC: > 46.3 µM
[2]
  MIC: > 46.3 µM
[3]
  MIC: 724 µM
[4]
  MIC: 724 µM
[5]
  Eryth/E. c: concentration required to restore erythromycin activity: 145 µM
  Eryth/E. c: fold change (intrinsic MIC of test compound / combination MIC): 5 fold
[6]
  Dox/P. a: concentration required to restore doxycycline activity: 145 µM
  Dox/P. a: fold change (intrinsic MIC of test compound / combination MIC): 5 fold
[7]; [11]
  MIC: 724 µM
[8]
  MIC: > 46.3 µM

## COc1ccc(/C=C/C(=O)NCCCNCCCCNCCCNC(=O)/C=C/c2ccc(OC)cc2)cc1.O=C(O)C(F)(F)F.O=C(O)C(F)(F)F [Compound 14a, N^1,N^4-Bis(3-((E)-3-(4-methoxyphenyl)acrylamido)propyl)butane-1,4-diaminium 2,2,2-trifluoroacetate]
[2]
  MIC: > 42.6 µM
[3]
  MIC: > 266 µM
[4]
  MIC: 33.3 µM
[5]
  Eryth/E. c: concentration required to restore erythromycin activity: 67 µM
  Eryth/E. c: fold change (intrinsic MIC of test compound / combination MIC): 4 fold
[6]
  Dox/P. a: concentration required to restore doxycycline activity: 16.6 µM
  Dox/P. a: fold change (intrinsic MIC of test compound / combination MIC): > 16 fold
[9]
  Hemolysis (HC10), concentration of compound at 10% hemolytic activity: >42.6 µM
[7]; [11]
  MIC: 266 µM
[10]
  IC50: > 42.6 µM
[8]
  MIC: > 42.6 µM

## COc1ccc(/C=C/C(=O)NCCCNCCCCCCCNCCCNC(=O)/C=C/c2ccc(OC)cc2)cc1.O=C(O)C(F)(F)F.O=C(O)C(F)(F)F [Compound 14c, N^1,N^7-Bis(3-((E)-3-(4-methoxyphenyl)acrylamido)propyl)heptane-1,7-diaminium 2,2,2-trifluoroacetate]
[2]
  MIC: > 40.4 µM
[3]
  MIC: > 252 µM
[4]
  MIC: 31.5 µM
[5]
  Eryth/E. c: concentration required to restore erythromycin activity: 126 µM
  Eryth/E. c: fold change (intrinsic MIC of test compound / combination MIC): 2 fold
[6]
  Dox/P. a: concentration required to restore doxycycline activity: 31.5 µM
  Dox/P. a: fold change (intrinsic MIC of test compound / combination MIC): > 8 fold
[9]
  Hemolysis (HC10), concentration of compound at 10% hemolytic activity: >40.4 µM
[7]; [11]
  MIC: 252 µM
[10]
  IC50: > 40.4 µM
[8]
  MIC: 20.2 µM

## COc1ccc(/C=C/C(=O)NCCCNCCCCCCCCCCNCCCNC(=O)/C=C/c2ccc(OC)cc2)cc1.O=C(O)C(F)(F)F.O=C(O)C(F)(F)F [Compound 14e, N^1,N^10-Bis(3-((E)-3-(4-methoxyphenyl)acrylamido)propyl)decane-1,10-diaminium 2,2,2-trifluoroacetate]
[1]
  MIC: ≤ 0.3 µM
[2]
  MIC: 38.3 µM
[3]
  MIC: 240 µM
[4]
  MIC: 1.87 µM
[6]
  Dox/P. a: concentration required to restore doxycycline activity: 60 µM
  Dox/P. a: fold change (intrinsic MIC of test compound / combination MIC): 4 fold
[9]
  Hemolysis (HC10), concentration of compound at 10% hemolytic activity: >38.3 µM
[7]; [11]
  MIC: 120 µM
[10]
  IC50: 2.3 µM
[8]
  MIC: ≤ 0.3 µM

## COc1ccc(/C=C/C(=O)NCCCNCCCCCCCCCCCCNCCCNC(=O)/C=C/c2ccc(OC)cc2)cc1.O=C(O)C(F)(F)F.O=C(O)C(F)(F)F [Compound 14f, N^1,N^12-Bis(3-((E)-3-(4-methoxyphenyl)acrylamido)propyl)dodecane-1,12-diaminium 2,2,2-trifluoroacetate]
[2]
  MIC: > 37.1 µM
[3]
  MIC: 232 µM
[4]
  MIC: 3.62 µM
[5]
  Eryth/E. c: concentration required to restore erythromycin activity: 3.62 µM
  Eryth/E. c: fold change (intrinsic MIC of test compound / combination MIC): 2 fold
[6]
  Dox/P. a: concentration required to restore doxycycline activity: 7.24 µM
  Dox/P. a: fold change (intrinsic MIC of test compound / combination MIC): 32 fold
[7]; E. coli ATCC 25922
  MIC: 7.24 µM
[7]; [11]
  MIC: 7.2 µM
[10]
  IC50: 24.3 µM
[8]
  MIC: ≤ 0.29 µM

## COc1ccc(/C=C/C(=O)NCCCNCCCCNCCCNC(=O)/C=C/c2ccc(OC)c(Br)c2)cc1Br.O=C(O)C(F)(F)F.O=C(O)C(F)(F)F [Compound 15a, N^1,N^4-Bis(3-((E)-3-(3-bromo-4-methoxyphenyl)acrylamido)propyl)butane-1,4-diaminium 2,2,2-trifluoroacetate]
[1]
  MIC: ≤ 0.28 µM
[2]
  MIC: 17.6 µM
[3]
  MIC: > 220 µM
[4]
  MIC: 13.8 µM
[5]
  Eryth/E. c: concentration required to restore erythromycin activity: 13.7 µM
  Eryth/E. c: fold change (intrinsic MIC of test compound / combination MIC): 4 fold
[6]
  Dox/P. a: concentration required to restore doxycycline activity: 27.5 µM
  Dox/P. a: fold change (intrinsic MIC of test compound / combination MIC): > 8 fold
[7]; [11]
  MIC: 55 µM
[10]
  IC50: > 35.2 µM
[8]
  MIC: 2.2 µM

## COc1ccc(/C=C/C(=O)NCCCNCCCCCCCNCCCNC(=O)/C=C/c2ccc(OC)c(Br)c2)cc1Br.O=C(O)C(F)(F)F.O=C(O)C(F)(F)F [Compound 15c, N^1,N^7-Bis(3-((E)-3-(3-bromo-4-methoxyphenyl)acrylamido)propyl)heptane-1,7-diaminium 2,2,2-trifluoroacetate]
[1]
  MIC: ≤ 0.26 µM
[2]
  MIC: 8.4 µM
[3]
  MIC: > 210 µM
[4]
  MIC: 6.57 µM
[5]
  Eryth/E. c: concentration required to restore erythromycin activity: 13.1 µM
  Eryth/E. c: fold change (intrinsic MIC of test compound / combination MIC): 2 fold
[6]
  Dox/P. a: concentration required to restore doxycycline activity: 26.3 µM
  Dox/P. a: fold change (intrinsic MIC of test compound / combination MIC): > 8 fold
[7]; [11]
  MIC: 26 µM
[10]
  IC50: > 33.7 µM
[8]
  MIC: ≤ 0.26 µM

## COc1ccc(/C=C/C(=O)NCCCNCCCCCCCCCCCCNCCCNC(=O)/C=C/c2ccc(OC)c(Br)c2)cc1Br.O=C(O)C(F)(F)F.O=C(O)C(F)(F)F [Compound 15f, N^1,N^12-Bis(3-((E)-3-(3-bromo-4-methoxyphenyl)acrylamido)propyl)dodecane-1,12-diaminium 2,2,2-trifluoroacetate]
[1]
  MIC: ≤ 0.24 µM
[3]
  MIC: > 196 µM
[4]
  MIC: 6.12 µM
[5]
  Eryth/E. c: concentration required to restore erythromycin activity: 6.1 µM
  Eryth/E. c: fold change (intrinsic MIC of test compound / combination MIC): 1 fold
[6]
  Dox/P. a: concentration required to restore doxycycline activity: 49.0 µM
  Dox/P. a: fold change (intrinsic MIC of test compound / combination MIC): > 4 fold
[9]
  Hemolysis (HC10), concentration of compound at 10% hemolytic activity: 1.17 µM
[7]; [11]
  MIC: 6.12 µM
[10]
  IC50: 1.12 µM
[8]
  MIC: ≤ 0.24 µM

## OC(Cn1cncn1)(Cn1cncn1)c1ccc(F)cc1F [fluconazole, reference compound]
[1]
  MIC: 26 µM (≈ 7.96 µg/mL)
[2]
  MIC: 0.4 µM (≈ 0.123 µg/mL)

## [H]/N=C(/N)N[C@H]1[C@H](O)[C@@H](O)[C@H](O[C@@H]2O[C@@H](C)[C@](O)(C=O)[C@H]2O[C@@H]2O[C@@H](CO)[C@H](O)[C@@H](O)[C@@H]2NC)[C@@H](N/C(N)=N\[H])[C@@H]1O [streptomycin, reference compound]
[3]
  MIC: 21.5 µM (≈ 12.5 µg/mL)
[4]
  MIC: 21.5 µM (≈ 12.5 µg/mL)
[7]; [11]
  MIC: 21.5 µM (≈ 12.5 µg/mL)

## CC/C(=C(\c1ccccc1)c1ccc(OCCN(C)C)cc1)c1ccccc1 [tamoxifen, reference compound]
[10]
  IC50: 24 µM
